PMC3382598, “Functional Metagenomics Unveils a Multifunctional Glycosyl Hydrolase from the Family 43 Catalysing the Breakdown of Plant Polymers in the Calf Rumen” (PLoS ONE, 2012)
Each block holds one compound with its values, some of them ahead of it.

Experiments:
Assay type in all cases: biochemical
Conditions in all cases: pH 6.0 (20 mM sodium acetate), 34°C; read-out: K m (mM)^1
R_09-02 [1] = test system: T1, R_09-02; assay: released xylose, D-xylose assay kit; Michaelis-Menten fit
T1 construct: recombinant in E. coli, His6-tag purification; tetramer approx. 200 kDa; second CDS of 3264 bp r_09 insert; W82, H301, R327 conserved residues; N-terminal GH43 domain plus C-terminal beta-sandwich (CBM6-like)
Text: released xylose, D-xylose assay kit; Michaelis-Menten fit on R_09-02

R_09-02 [2] = test system: T1, R_09-02; assay: released glucose, glucose oxidase kit; Michaelis-Menten fit
Text: released glucose, glucose oxidase kit; Michaelis-Menten fit on R_09-02

R_09-02 [3] = test system: T1, R_09-02; assay: released arabinose, lactose/galactose (Rapid) assay kit; Michaelis-Menten fit
Text: released arabinose, lactose/galactose (Rapid) assay kit; Michaelis-Menten fit on R_09-02

R_09-02 [4] = test system: T1, R_09-02; assay: oligosaccharide hydrolysis, released sugar assay; Michaelis-Menten fit
Text: oligosaccharide hydrolysis, released sugar assay; Michaelis-Menten fit on R_09-02

R_09-02 [5] = test system: T1, R_09-02; assay: p-nitrophenol release at […] nm; Michaelis-Menten fit

Structure (SMILES): OC1[C@H](O)CO[C@@H](O[C@@H]2CO[C@@H](O[C@@H]3CO[C@@H](O[C@@H]4CO[C@@H](O[C@@H]5COC(O)[C@H](O)[C@H]5O)[C@H](O)C4O)[C@H](O)C3O)[C@H](O)C2O)[C@@H]1O (stereo partly drawn) [1,4-β-Xylopentaose]
- Km (R_09-02 [1]): 1.58 ± 0.19 mM

Structure (SMILES): OC1OC[C@@H](O[C@@H]2OC[C@@H](O[C@@H]3OC[C@@H](O)[C@H](O)[C@H]3O)[C@H](O)[C@H]2O)[C@H](O)[C@H]1O (stereo partly drawn) [1,4-β-Xylotriose]
- Km (R_09-02 [1]): 0.29 ± 0.02 mM

Structure (SMILES): OC[C@H]1O[C@H](O[C@H]2[C@H](O)[C@@H](O)C(O)O[C@@H]2CO)[C@H](O)[C@@H](O)[C@@H]1O (some centres unmarked) [Maltose]
- Km (R_09-02 [2]): 2.57 ± 0.19 mM

Structure (SMILES): OC[C@@H]1O[C@@H](OC[C@@H]2O[C@@H](OC[C@@H]3O[C@@H](OC[C@@H]4OC(O)[C@H](O)[C@H]4O)[C@H](O)[C@H]3O)[C@H](O)[C@H]2O)[C@H](O)[C@H]1O (stereo partly drawn) [1,5-α-L-Arabinotetraose]
- Km (R_09-02 [3]): 4.23 ± 0.74 mM

Structure (SMILES): OC[C@@H]1O[C@@H](OC[C@@H]2O[C@@H](OC[C@@H]3OC(O)[C@H](O)[C@H]3O)[C@H](O)[C@H]2O)[C@H](O)[C@H]1O (stereo partly drawn) [1,5-α-L-Arabinotriose]
- Km (R_09-02 [3]): 0.1 ± 0.05 mM

Structure (SMILES): OC[C@H]1O[C@H](O[C@H]2[C@H](O)[C@@H](O)[C@@H](O[C@H]3[C@H](O)[C@@H](O)[C@@H](O[C@H]4[C@H](O)[C@@H](O)[C@@H](O[C@H]5[C@H](O)[C@@H](O)C(O)O[C@@H]5CO)O[C@@H]4CO)O[C@@H]3CO)O[C@@H]2CO)[C@H](O)[C@@H](O)[C@@H]1O (some centres unmarked) [Maltopentaose]
- Km (R_09-02 [2]): 1.64 ± 0.21 mM

Structure (SMILES): OC1OC[C@@H](O[C@@H]2OC[C@@H](O)[C@H](O)[C@H]2O)[C@H](O)[C@H]1O (stereo partly drawn) [1,4-β-Xylobiose]
- Km (R_09-02 [1]): 0.012 ± 0.002 mM

Structure (SMILES): OC[C@@H]1O[C@@H](OC[C@@H]2OC(O)[C@H](O)[C@H]2O)[C@H](O)[C@H]1O (stereo partly drawn) [1,5-α-L-Arabinobiose]
- Km (R_09-02 [3]): 0.027 ± 0.01 mM

Structure (SMILES): OC[C@H]1O[C@@H](O[C@H]2[C@H](O)[C@@H](O)C(O)O[C@@H]2CO)[C@H](O)[C@@H](O)[C@H]1O (some centres unmarked) [Lactose]
- Km (R_09-02 [2]): 0.05 ± 0.0039 mM

Structure (SMILES): OC1OC[C@@H](O[C@@H]2OC[C@@H](O[C@@H]3OC[C@@H](O[C@@H]4OC[C@@H](O)[C@H](O)[C@H]4O)[C@H](O)[C@H]3O)[C@H](O)[C@H]2O)[C@H](O)[C@H]1O (stereo partly drawn) [1,4-β-Xylotetraose]
- Km (R_09-02 [1]): 0.33 ± 0.07 mM

The next lines start with the values.

- Km (R_09-02 [2]): 0.53 ± 0.17 mM
Structure (SMILES): OC[C@H]1O[C@H](O[C@H]2[C@H](O)[C@@H](O)[C@@H](O[C@H]3[C@H](O)[C@@H](O)[C@@H](O[C@H]4[C@H](O)[C@@H](O)C(O)O[C@@H]4CO)O[C@@H]3CO)O[C@@H]2CO)[C@H](O)[C@@H](O)[C@@H]1O (some centres unmarked) [Maltotetraose]

- Km (R_09-02 [4]): 0.035 ± 0.004 mM
Structure (SMILES): OC[C@H]1O[C@H](OC[C@H]2O[C@H](O[C@]3(CO)O[C@H](CO)[C@@H](O)[C@@H]3O)[C@H](O)[C@@H](O)[C@@H]2O)[C@H](O)[C@@H](O)[C@H]1O [Raffinose]

- Km (R_09-02 [4]): 1.43 ± 0.84 mM
Structure (SMILES): OC[C@H]1O[C@H](OC[C@H]2O[C@H](OC[C@H]3O[C@H](O[C@]4(CO)O[C@H](CO)[C@@H](O)[C@@H]4O)[C@H](O)[C@@H](O)[C@@H]3O)[C@H](O)[C@@H](O)[C@H]2O)[C@H](O)[C@@H](O)[C@H]1O [Stachyose]

- Km (R_09-02 [5]): 4.84 ± 1.27 mM
Structure (SMILES): O=[N+]([O-])c1ccc(O[C@H]2O[C@H](CO)[C@@H](O)[C@H](O)[C@H]2O)cc1 [pNPαG]

- Km (R_09-02 [5]): 9.74 ± 0.41 mM
Structure (SMILES): O=[N+]([O-])c1ccc(O[C@H]2O[C@H](CO)[C@@H](O[C@H]3O[C@H](CO)[C@@H](O)[C@H](O)[C@H]3O)[C@H](O)[C@H]2O)cc1 [pNPαMal]

- Km (R_09-02 [5]): 6.98 ± 0.79 mM
Structure (SMILES): O=[N+]([O-])c1ccc(O[C@@H]2OC[C@H](O)[C@H](O)[C@H]2O)cc1 [pNPαAp]

- Km (R_09-02 [5]): 4.4 ± 0.76 mM
Structure (SMILES): O=[N+]([O-])c1ccc(O[C@@H]2OC[C@@H](O)[C@H](O)[C@H]2O)cc1 [pNPβX]

- Km (R_09-02 [2]): 0.44 ± 0.13 mM
Structure (SMILES): OC[C@H]1O[C@H](O[C@H]2[C@H](O)[C@@H](O)[C@@H](O[C@H]3[C@H](O)[C@@H](O)C(O)O[C@@H]3CO)O[C@@H]2CO)[C@H](O)[C@@H](O)[C@@H]1O (some centres unmarked) [Maltotriose]

- Km (R_09-02 [5]): 0.57 ± 0.15 mM
Structure (SMILES): O=[N+]([O-])c1ccc(O[C@@H]2O[C@@H](CO)[C@H](O)[C@H]2O)cc1 [pNPαAf]

- Km (R_09-02 [5]): 0.37 ± 0.12 mM
Structure (SMILES): O=[N+]([O-])c1ccc(O[C@@H]2O[C@H](CO)[C@H](O)[C@H](O)[C@H]2O)cc1 [pNPβGal]
